One block for each molecule: values may come before it.
Key:
[1] = system: METAP2; design: method as in PMID 16525646, PMID 9177176, PMID 10574784; conditions: inactivates aminopeptidase activity; cited from earlier work
[2] = Plasma pharmacokinetics by LC/MS-MS after subcutaneous dosing; assay type: in vivo, human
Method: Blood samples were collected to enable PK bioanalyses at the following timepoints: cycles 1, 3, and 6: predose, 3, 6, 24, 48, and 96 hours after dosing, and days 8 (predose on the Q7D schedule), 15 (predose) and 22 (predose on the Q7D schedule); cycles 2, 4, 5, 7, and beyond: days 1 (predose), 8 (predose on the Q7D schedule), 15 (predose), and 22 (predose on the Q7D schedule). PK samples were collected on day 1 (predose, 3, 6, and 24 hours) for cycle 1 and then predose days 1 and 15 for even cycles and predose for odd cycles thereafter. Analysis of exploratory biomarkers was conducted using commercially available ELISA kits.
The levels of the released small-molecule METAP2 inhibitor SDX-7539 in plasma were measured using a validated LC/MS-MS method with a lower limit of quantification (LLOQ) of 10.0 pg/mL. The levels of the polymer–drug conjugate evexomostat in plasma were measured using a fit-for-purpose LC/MS-MS method. Target engagement was assessed at various times postdose in lysed whole blood using a validated ELISA designed to measure uninhibited METAP2 ([25]).
Analyses were conducted using SAS v 9.4 (SAS Institute) unless otherwise noted. AEs were coded in MedDRA v18.1 and analyzed by system organ class/preferred term. Treatment-related AEs (TRAE) were tabulated for all events occurring in two patients or more. Response was assessed using RECIST v1.1. PK analysis utilized WinNonlin v8.1 and a noncompartmental analysis approach.

[3] = system: patients; design: method as in PMID 10473076, PMID 12431966; conditions: prior clinical trials; cited from earlier work
[4] = system: VEGF-D; design: method as in PMID 17605814, PMID 24220935; conditions: cited from earlier work
[5] = released active moiety after subcutaneous evexomostat

SMILES: CO[C@@H]1[C@H](OC(=O)/C=C/C=C/C=C/C=C/C(=O)O)CC[C@]2(CO2)[C@H]1[C@@]1(C)O[C@@H]1CC=C(C)C [Fumagillin]
binding to METAP2 [1]: potently and irreversibly binds to METAP2

relationship of plasma Cmax and AUC in cycle 1 with reductions in platelets ([2]; % change from baseline to C1D8 or C1D15): potential relationship
time with detectable plasma levels ([2]; following a single dose of evexomostat): 7 days
plasma exposure (Cmax, AUC0-t) vs dose ([2]; released SDX-7539 vs administered dose of SDX-7320): variability with increasing dose
Tmax in plasma [2, 5]: 29 h
Tmax in plasma, range [2, 5]: 6 to 96 h
SMILES: CO[C@@H]1[C@H](OC(=O)NC2CCC(N)CC2)CC[C@]2(CO2)[C@H]1[C@@]1(C)O[C@@H]1CC=C(C)C (some centres unmarked) [SDX-7539]

SMILES: CO[C@@H]1[C@H](OC(=O)NC(=O)CCl)CC[C@]2(CO2)[C@H]1[C@@]1(C)O[C@@H]1CC=C(C)C [TNP-470]
dose-limiting CNS toxicities [3]: dose-limiting CNS toxicities were observed

SMILES: CCN(CC)CCNC(=O)c1c(C)[nH]c(/C=C2\C(=O)Nc3ccc(F)cc32)c1C [sunitinib]
change in circulating VEGF-D [4]: increase circulating VEGF-D

— PMC12183619, “A Phase 1 Safety Study of Evexomostat (SDX-7320) in Patients with Late-Stage Cancer: An Antiangiogenic, Insulin-Sensitizing Drug Conjugate Targeting METAP2” (Cancer Research Communications, 2025)
